This is an account of results in the NIST ThermoML archive (doi:10.1016/j.tca.2018.04.014).

The conditions of data set [1]: DSC. (Differential scanning calorimetry records heat flow against a reference as temperature is scanned.)
A short description of data set [2]: Molar enthalpy of transition or fusion. The conditions noted are these: DSC.

± gives the expanded uncertainty stated by the source.

For the molecule `CC1(C)[C@@H]2CC[C@@]1(C)C(=O)C2` [d-camphor], the Triple point temperature in data set [1] (Crystal 1) was determined as 452.7 ± 3.1 K; in data set [1] (Crystal 2), 372.3 ± 3.1 K; in data set [1] (Crystal 3), 242.8 ± 3.1 K. Further, the “Molar enthalpy of transition or fusion” value was 0.15 ± 0.71 kJ/mol in data set [2] (Crystal 2) and 11.2 ± 0.76 kJ/mol in data set [2] (Crystal 3).

As to `CC1(C)[C@H]2CC[C@]1(C)C(=O)C2` [(1S)-1,7,7-trimethylbicyclo[2.2.1]heptan-2-one], the Triple point temperature in data set [1] (Crystal 1) is given as 453.9 ± 3.1 K; in data set [1] (Crystal 2) it was 375.3 ± 3.1 K; in data set [1] (Crystal 3), 246.3 ± 3.1 K. Further, the “Molar enthalpy of transition or fusion” value in data set [2] (Crystal 2) stood at 0.16 ± 0.71 kJ/mol; in data set [2] (Crystal 3) it was 13.2 ± 0.77 kJ/mol.

In the case of `CC1(C)[C@@H]2CC[C@@]1(C)[C@@H](O)C2` [d-borneol], the values for the Triple point temperature in data set [1] (Crystal 1), in data set [1] (Crystal 2) and in data set [1] (Crystal 3) were 481.6 ± 3.1 K, 346.7 ± 3.1 K and 213.5 ± 3.1 K, respectively. Moreover, the “Molar enthalpy of transition or fusion” value in data set [2] (Crystal 2) came out at 3.03 ± 0.73 kJ/mol; in data set [2] (Crystal 3) it was 0.75 ± 0.72 kJ/mol.

In the case of `CC1(C)[C@H]2CC[C@]1(C)[C@H](O)C2` [(1S-endo)-1,7,7-trimethylbicyclo[2.2.1]heptan-2-ol], the Triple point temperature is 479.7 ± 3.1 K in data set [1] (Crystal 1), 347.4 ± 3.1 K in data set [1] (Crystal 2) and 212.3 ± 3.1 K in data set [1] (Crystal 3). Moreover, the “Molar enthalpy of transition or fusion” value in data set [2] (Crystal 2) is 2.99 ± 0.73 kJ/mol; in data set [2] (Crystal 3), 0.72 ± 0.72 kJ/mol.
